In patent publication US20130252890A1, “6,7-DIHYDRO-5H-BENZO[7]ANNULENE DERIVATIVES, PROCESS FOR PREPARATION THEREOF, PHARMACEUTICAL PREPARATIONS COMPRISING THEM, AND THE USE THEREOF FOR PRODUCTION OF MEDICAMENTS” (BAYER INTELLECTUAL PROPERTY GMBH, priority 2010, published 2013):
“Also recorded” adds a separate entry of the source.

Key:
[1] = test system: peripheral cholesterol level; assay: Hepatic oestrogenicity in the ovariectomized adult rat (plasma cholesterol); format: in vivo; details: ovariectomized adult rats, s.c. daily for 6 days; cholesterol day 0 vs day 8
Description: Substances with oestrogenic action influence the synthesis of various plasma proteins, of coagulation factors and fibrinolytic factors in the liver. […] In the present investigations, lowering of the peripheral cholesterol level is used as a surrogate parameter for analysis of the hepatic oestrogenicity of the claimed pharmacological compounds. Adult ovariectomized rats were, after a pause of 6-10 days, treated daily for 6 days with the substances by subcutaneous application. The plasma cholesterol levels were determined and compared before and after the respective treatment.

endometriosis lesions = assay: Endometriosis model in the rat (autologous transplantation); format: in vivo
Description: Using intact adult female rats, experimental endometriosis was induced in the autologous transplantation model based on Vernon M. W. and Wilson E. A., 1985 (Fertil Steril. 44(5):684-694). A uterine horn was removed from animals that were exclusively in oestrus, the myometrium was separated from the endometrium and biopsies with dimensions of 4×4 mm were obtained from the endometrial tissue. Two uterine fragments were transplanted onto the inside of the abdominal wall (peritoneum) and two uterine fragments were transplanted onto the mesenterium of the same animal (4 fragments per animal). After 21 days the animals with endometriosis were laparotomized, and the size of the transplants was determined. The animals were treated after laparotomy and then daily in the morning with the stated dosages of the selected claimed substances by subcutaneous administration. Finally, 28 days after the start of treatment (49 days after transplantation), all the animals were laparotomized again and the size of the lesion was measured and was correlated with the size before the start of treatment.

uterus = assay: Oestrogenic action - uterus growth test in the infantile rat; format: in vivo; details: sc, 72 h, s.c. 3 days, maximum at dose 0.1 mg/kg, relative to E2 0.3 μg/animal, read-out: maximum uterotropic action (% estradiol action) in the dose range from 0.03 to 3 mg/kg
Description: Both the uterus and the vagina show a weight increase that is dependent on oestrogenic efficacy, in infantile animals when they are treated with a substance with oestrogenic action. In the uterus, under oestrogenic action there is also proliferation and increase in height of the luminal epithelium.
Immature, intact rats (n=5-6 animals/group; body weight 40-50 g) receive the substance s.c. for 3 days (d1-d3). On day 4 (d4) the animals are killed with CO2. The uteri are removed and weighed. For histological assessment, a piece of uterus, preferably a uterine horn, is fixed in formaldehyde and embedded in paraffin. The stimulation of the organ weights (relative to mg/100 g body weight) and the height of the epithelium are shown as percentage stimulation in comparison with the reference compound 17β-estradiol (E2). (Substitution dose of E2 0.3 μg/animal).

[2] = test system: bone mass and uterus weight; assay: Antagonistic action on bone mass and uterus weight in hormonally intact rats; format: in vivo, Sprague-Dawley rats; details: adult hormonally intact rats, oral 1-10 mg/kg, 2 months
Description: Application was oral, in peanut oil/ethanol. The animals were killed on the day after the last application and the tibia and uteri were removed. The uteri were weighed, fixed and prepared for optional histological investigations. Bone density was determined on long bones by pQCT (quantitative computed tomography), once before the treatment, once on the day of autopsy. The variations for this parameter were shown correspondingly between these two reference points (values below 100 correspond to a decrease in bone mass density, values above 100 to an increase). The control group was a group of animals from which the ovaries had been removed (OVX) (due to ovariectomy, as expected there is a decrease in density of the trabecular bone in the measured range over the period of the experiment). All other animals underwent a SHAM-OP (a sham operation) (without the ovaries being removed) in addition to the application treatment. The changes in relative uterus weights served as the reference for the anti-oestrogenic action.

mammary gland = assay: Action on the mammary gland in the juvenile rat; format: in vivo; details: juvenile ovariectomized rats, 6 days
Description: The formation of secretory units in the mamma is dependent in particular on gestagens and oestrogens. […] To investigate the stimulating action of test compounds, animals are ovariectomized at the age of 21 days and after a treatment-free interval of 6 days treated either with a combination of the test compound and an oestrogen (for example 70 μg/kg E1) or a combination of the test compound and a gestagen (for example promegestone 0.3 mg/kg) in each case for a period of 6 days. To investigate the antagonistic potential of a test compound, the test compound is given for a period of 6 days together with an oestrogen (see above) and a gestagen (see above). Finally one of the abdominal-inguinal mammary glands is prepared and submitted to so-called whole-mount staining. The number of secretory units on an area of approx. 1.0 mm^2 serves as the end point (moreover, this can also vary according to requirements).

oestrogen receptor (ER) = biological target: T1, oestrogen receptor (ER) (Homo sapiens, UniProt P03372); assay: Anti-oestrogenic action in MVLN cells (inhibition of estradiol-induced luciferase); format: cell-based; details: inhibition of estradiol-induced luciferase signal, value of Ex. 44 is a mean value, read-out: Antioestrogenic action in vitro: MVLN transactivation antagonism IC50
T1 construct: These MVLN cells express, along with the functional oestrogen receptor (ER), a reporter construct; endogenous in cells; host or cells: MVLN cells (MCF7 derivative carrying a luciferase reporter construct)
T1 sequence (P03372 1-595): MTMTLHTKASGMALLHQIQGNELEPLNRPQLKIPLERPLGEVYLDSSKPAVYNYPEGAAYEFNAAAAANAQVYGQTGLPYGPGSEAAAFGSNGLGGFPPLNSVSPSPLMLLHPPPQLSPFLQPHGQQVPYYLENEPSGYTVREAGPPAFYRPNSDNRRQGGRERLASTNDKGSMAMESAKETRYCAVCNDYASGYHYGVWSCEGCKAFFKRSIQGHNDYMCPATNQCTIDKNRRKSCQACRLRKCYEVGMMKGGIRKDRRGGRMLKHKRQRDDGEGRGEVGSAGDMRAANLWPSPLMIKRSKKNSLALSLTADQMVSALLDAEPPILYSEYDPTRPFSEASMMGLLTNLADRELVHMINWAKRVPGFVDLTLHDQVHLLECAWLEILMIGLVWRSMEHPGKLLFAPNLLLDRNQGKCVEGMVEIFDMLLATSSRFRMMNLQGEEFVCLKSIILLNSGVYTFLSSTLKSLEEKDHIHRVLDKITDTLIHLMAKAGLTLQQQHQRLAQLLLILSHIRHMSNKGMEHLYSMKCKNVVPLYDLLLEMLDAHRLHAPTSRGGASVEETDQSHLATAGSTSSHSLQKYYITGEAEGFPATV
Procedure, shortened: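 MVLN cells, MCF7 breast cancer derivatives carrying functional ER plus an ER-activated luciferase reporter, were treated with compounds in the presence of estradiol. Anti-oestrogenic activity taken as inhibition of the estradiol-induced luciferase signal.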

hepatic oestrogenicity: lowering of the peripheral cholesterol level [1]: only observed at high dosage
IC50 (oestrogen receptor (ER)): 5.6 nM
SMILES: CN(CCCCCCC1=C(c2cc(F)cc(F)c2)CCCc2cc(O)ccc21)CCCCS(=O)(=O)CCCC(F)(F)F [Example 44, 8-(3,5-Difluorophenyl)-9-[6-(methyl{4-[(4,4,4-trifluorobutyl)sulphonyl]butyl}amino)hexyl]-6,7-dihydro-5H-benzo[7]annulen-3-ol]
peripheral (blood) estradiol level of the treated animals (endometriosis lesions; animals of the FIG. 2C experiment (FIG. 2D)): does not lead to an increase in peripheral estradiol level above the physiological range; also recorded: None of the groups treated with example compound 44 in the stated dosages shows levels above or below the naturally occurring estradiol levels
reduction of lesion sizes, independent experiment (endometriosis lesions; rat, 0.3 mg/kg to 13 mg/kg, three dosages (FIG. 2C)): significant dose-dependent reduction of lesion sizes; also recorded: all three dosages lead to a significant reduction of the lesion
dosage with significant reduction in sizes of lesions (endometriosis lesions; rat, 28 days of treatment, 115 tested 0.1-1 mg/kg, 44 tested 0.3-10 mg/kg): ≥ 1 mg/kg
reduction of lesion size (endometriosis lesions; rat, s.c. daily, 4 weeks (FIG. 2A, FIG. 2B)): significant dose-dependent reduction of lesion size
Emax at 0.1 mg/kg (uterus): 6%
effect on relative uterus weight (anti-oestrogenic action) [2]: dose-dependent anti-oestrogenic action on the uterus; also recorded: dose-dependent decrease
trabecular bone mass density of the tibia [2]: not reduced; also recorded: does not show a significant decrease in bone mass density at any of the tested dosages
induction of mammary gland differentiation (agonistic potential) (mammary gland; test compound alone with gestagen R5020 or alone with oestrogen E1): no induction of mammary gland differentiation significantly different from the group given excipients; also recorded: did not show any agonistic, inducing potential
formation of mammary secretory units induced by E1 and R5020 (mammary gland; test compound with oestrogen E1 and gestagen promegestone (R5020)): dose-dependent inhibition; also recorded: dose-dependent reduction of this effect
